The text below walks through data of patent publication US12024510B2, “Pyrazolopyridine-diamides, their use as insecticide and processes for preparing the same” (PI INDUSTRIES LTD., priority 2017, dated 2024).

Molecules are shown by their SMILES. Bounds are passed on as bounds.

Format in all cases: in vivo
One test has as its system Spodoptera litura. Kind of test: Spodoptera litura diet incorporation method. As to conditions: third instar larvae, dead and moribund combined, 96 h after release. The procedure: (§1) Test Solutions were Prepared According to the Procedure Described Herein Below (500 PPM):
(§2) • 1. Eppendorf Vortex mixer (ThermoMixer C) and 1.5 mL Eppendorf tubes • 2. Zirconia (Zirconium-Yttrium) beads having diameter of 0.8 to 1.0 mm • 3. Microscope • 4. Beaker 100 mL • 5. Micro-pipette Reagents: • 1. Surfactant Solution • 2. De-mineralized (DM) Water • 1. Weigh 10 mg of the compound of the present invention to be tested in an Eppendorf Tube. • 2. Add 200 mg of the Surfactant Solution into the tube. • 3. Add 600 mg of Zirconia beads into the above mixture. • 4. Fix the tube in Eppendorf Vortex mixer and start vortexing at 2000 rpm. • 5. Mix on Vortex mixer for 30 minutes. After 30 minutes, observe the sample over a microscope at 400× resolution. • 6. If the Maximum particle size is more than 5 μm or average particle size is more than 2 μm or the particle size distribution is uneven, continue vortexing for another 30 minutes and again check the particle size using the microscope. Continue till the average particle size is below 2 microns. • 7. When the required particle size is achieved, add 1.0 mL DM water into the tube, close the cap, shake the tube thoroughly and transfer the contents, along with the beads, into a beaker. • 8. To rinse the tube, add another 1.0 mL of DM water into the tube, close the cap, shake well and transfer this into the same beaker. • 9. Repeat Step no. 8 one more time so that the tube is rinsed well and the compound of the present invention to be tested is transferred to the beaker. • 10. Add 16.8 mL of DM water into the beaker and stir well. • 11. The homogeneous dispersion can then be decanted into a glass vial, immediately, to separate the Zirconia beads. • 12. Immediately use this sample for biological testing. • 13. Further dilutions can be prepared by taking appropriate quantity of the aliquot of Step 10, immediately after stirring, and diluting as per requirement. The sample solution must be well mixed just before biological testing.
(§3) Diet incorporation method was used, in which semi-synthetic diet was incorporated into the test solution when the temperature is approximately 50° C. in the bioassay containers and stirred thoroughly for properly mixing and then was allowed to cool for 30 min. The solidified diet was cut into equal pieces, and then each piece was transferred in one cell in Bio-assay trays. A single third instar starved larva was released into each of these cells of bioassay trays and the tray was covered with the lid. The bio-assay trays were kept under laboratory conditions at a temperature of 25° C. and Relative Humidity of 70%. Observations on dead, moribund and live larvae were recorded at 96 h after the release of larvae. Percent mortality was calculated by combining dead and moribund larvae. The following compound numbers

A further test relates to Helicoverpa armigera. Kind of test: Helicoverpa armigera diet incorporation method. Particulars: third instar larvae, dead and moribund combined, 96 h after release. On the procedure: as §1, §2
as §3, with “which and” for “which”

The next test concerns Plutella xylostella. Kind of test: whole plant or invertebrate. Particulars: foliar, cabbage leaf dip, second instar larvae, dead and moribund combined, 72 h after release. The method in brief:
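Leaf-dip bioassay: second-instar larvae, singly, fed on cabbage leaves dipped 10 s in test dispersion (bead-milled, diluted with 0.01% Triton-X to test concentration) and dried 20 min. Held at 25 °C, 70% RH; % mortality counts dead and moribund at 72 h.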

Usually mortality stands for the share of the test organisms that died. In the case of `Cc1cc2ccnn2c(C(=O)NC(C)C2CC2)c1NC(=O)c1cc(Cn2nnc(C(F)(F)F)n2)nn1-c1ncccc1Cl` (stereo not drawn) [Compound 169, 6-(1-(3-chloropyridin-2-yl)-3-((5-(trifluoromethyl)-2H-tetrazol-2-yl)methyl)-1H-pyrazole-5-carboxamido)-N-(1-cyclopropylethyl)-5-methylpyrazolo[1,5-a]pyridine-7-carboxamide], the mortality at 300 ppm in the test on Spodoptera litura and in the test with Helicoverpa armigera was > 70% throughout.
In the case of `C=CCNC(=O)c1c(NC(=O)c2cc(C(F)(F)F)nn2-c2ncccc2Cl)c(C)cc2ccnn12` [Compound 64, N-allyl-6-(1-(3-chloropyridin-2-yl)-3-(trifluoromethyl)-1H-pyrazole-5-carboxamido)-5-methylpyrazolo[1,5-a]pyridine-7-carboxamide], the mortality at 300 ppm in the test with Spodoptera litura and in the test on Helicoverpa armigera was > 70% in each case.
For `Cc1cc2ccnn2c(C(=O)NC2CSC2)c1NC(=O)c1cc(Br)nn1-c1ncccc1Cl` [Compound 207, 6-(3-bromo-1-(3-chloropyridin-2-yl)-1H-pyrazole-5-carboxamido)-5-methyl-N-(thietan-3-yl)pyrazolo[1,5-a]pyridine-7-carboxamide], the mortality at 300 ppm with Spodoptera litura and with Plutella xylostella was > 70% in each case.
Consider `CCCNC(=O)c1c(NC(=O)c2cc(C(F)(F)F)nn2-c2ncccc2Cl)c(C)cc2ccnn12` [Compound 92, 6-(1-(3-chloropyridin-2-yl)-3-(trifluoromethyl)-1H-pyrazole-5-carboxamido)-5-methyl-N-propylpyrazolo[1,5-a]pyridine-7-carboxamide], for which the mortality at 300 ppm in the test with Spodoptera litura and in the test with Helicoverpa armigera was > 70% throughout.
As to `CCONC(=O)c1c(NC(=O)c2cc(Br)nn2-c2ncccc2Cl)c(C)cc2ccnn12` [Compound 106, 6-(3-bromo-1-(3-chloropyridin-2-yl)-1H-pyrazole-5-carboxamido)-N-ethoxy-5-methylpyrazolo[1,5-a]pyridine-7-carboxamide], the mortality at 300 ppm in the test on Spodoptera litura and with Plutella xylostella was > 70% in each case.
Take `CCCC(C)NC(=O)c1c(NC(=O)c2cc(OC)nn2-c2ncccc2Cl)c(C)cc2ccnn12` (stereo not drawn) [Compound 184, 6-(1-(3-chloropyridin-2-yl)-3-methoxy-1H-pyrazole-5-carboxamido)-5-methyl-N-(pentan-2-yl)pyrazolo[1,5-a]pyridine-7-carboxamide]: the mortality at 300 ppm in the test with Spodoptera litura and in the test with Plutella xylostella was > 70% each time.
In the case of `Cc1cc2ccnn2c(C(=O)NCC2CCCO2)c1NC(=O)c1cc(Br)nn1-c1ncccc1Cl` (racemic) [Compound 189, rac-(R)-6-(3-bromo-1-(3-chloropyridin-2-yl)-1H-pyrazole-5-carboxamido)-5-methyl-N-((tetrahydrofuran-2-yl)methyl)pyrazolo[1,5-a]pyridine-7-carboxamide], the mortality at 300 ppm with Spodoptera litura and with Plutella xylostella was > 70% throughout.
On to `CC(C)NC(=O)c1c(NC(=O)c2cc(C(F)(F)F)nn2-c2ncccc2Cl)c(Br)cc2ccnn12` [Compound 107, 5-bromo-6-(1-(3-chloropyridin-2-yl)-3-(trifluoromethyl)-1H-pyrazole-5-carboxamido)-N-isopropylpyrazolo[1,5-a]pyridine-7-carboxamide], for which the mortality at 300 ppm in the test with Spodoptera litura and in the test with Helicoverpa armigera was > 70% in each case.
For the molecule `Cc1cc2ccnn2c(C(=O)NC2(C#N)CC2)c1NC(=O)c1cc(Br)nn1-c1ncccc1Cl` [Compound 216, 6-(3-bromo-1-(3-chloropyridin-2-yl)-1H-pyrazole-5-carboxamido)-N-(1-cyanocyclopropyl)-5-methylpyrazolo[1,5-a]pyridine-7-carboxamide], the mortality at 300 ppm in the test on Spodoptera litura and in the test with Plutella xylostella was > 70% each time.
`Cc1cc2ccnn2c(C(=O)NC(C)C2CC2)c1NC(=O)c1cc(OC2CSC2)nn1-c1ncccc1Cl` (stereo not drawn) [Compound 146, 6-(1-(3-chloropyridin-2-yl)-3-(thietan-3-yloxy)-1H-pyrazole-5-carboxamido)-N-(1-cyclopropylethyl)-5-methylpyrazolo[1,5-a]pyridine-7-carboxamide]: the mortality at 300 ppm with Spodoptera litura and in the test with Helicoverpa armigera was > 70% in each case.
For `Cc1cc2ccnn2c(C(=O)NC(C)C2CC2)c1NC(=O)c1cc(OCC(F)(F)F)nn1-c1ncccc1Cl` (stereo not drawn) [Compound 121, 6-(1-(3-chloropyridin-2-yl)-3-(2,2,2-trifluoroethoxy)-1H-pyrazole-5-carboxamido)-N-(1-cyclopropylethyl)-5-methylpyrazolo[1,5-a]pyridine-7-carboxamide], the mortality at 300 ppm in the test on Spodoptera litura and with Helicoverpa armigera was > 70% in each case.
Take `Cc1cc2ccnn2c(C(=O)NC(C)CCC(C)C)c1NC(=O)c1cc(Br)nn1-c1ncccc1Cl` (stereo not drawn) [Compound 188, 6-(3-bromo-1-(3-chloropyridin-2-yl)-1H-pyrazole-5-carboxamido)-5-methyl-N-(5-methylhexan-2-yl)pyrazolo[1,5-a]pyridine-7-carboxamide]: the mortality at 300 ppm in the test on Spodoptera litura and in the test on Plutella xylostella was > 70% in each case.
Turning to `COc1cc(C(=O)Nc2c(Cl)cc3ccnn3c2C(=O)NC(C)(C)C)n(-c2ncccc2Cl)n1` [Compound 136, N-(tert-butyl)-5-chloro-6-(1-(3-chloropyridin-2-yl)-3-methoxy-1H-pyrazole-5-carboxamido)pyrazolo[1,5-a]pyridine-7-carboxamide], the mortality at 300 ppm with Spodoptera litura and in the test on Helicoverpa armigera was > 70% in each case.
Regarding `Cc1cc2ccnn2c(C(=O)NCCC#N)c1NC(=O)c1cc(OCC(F)(F)F)nn1-c1ncccc1Cl` [Compound 47, 6-(1-(3-chloropyridin-2-yl)-3-(2,2,2-trifluoroethoxy)-1H-pyrazole-5-carboxamido)-N-(2-cyanoethyl)-5-methylpyrazolo[1,5-a]pyridine-7-carboxamide], the mortality at 300 ppm in the test with Spodoptera litura and in the test on Plutella xylostella was > 70% each time.
Regarding `Cc1cc2ccnn2c(C(=O)NC2CC2)c1NC(=O)c1cc(Cn2nnc(C(F)(F)F)n2)nn1-c1ncccc1Cl` [Compound 168, 6-(1-(3-chloropyridin-2-yl)-3-((5-(trifluoromethyl)-2H-tetrazol-2-yl)methyl)-1H-pyrazole-5-carboxamido)-N-cyclopropyl-5-methylpyrazolo[1,5-a]pyridine-7-carboxamide], the mortality at 300 ppm with Spodoptera litura and in the test on Helicoverpa armigera was > 70% each time.
Consider `COCCNC(=O)c1c(NC(=O)c2cc(OCC(F)(F)F)nn2-c2ncccc2Cl)c(C)cc2ccnn12` [Compound 17, 6-(1-(3-chloropyridin-2-yl)-3-(2,2,2-trifluoroethoxy)-1H-pyrazole-5-carboxamido)-N-(2-methoxyethyl)-5-methylpyrazolo[1,5-a]pyridine-7-carboxamide], for which the mortality at 300 ppm in the test on Spodoptera litura and in the test with Plutella xylostella was > 70% throughout.
With `CCNC(=O)c1c(NC(=O)c2cc(Br)nn2-c2ncccc2Cl)c(Cl)cc2ccnn12` [Compound 142, 6-(3-bromo-1-(3-chloropyridin-2-yl)-1H-pyrazole-5-carboxamido)-5-chloro-N-ethylpyrazolo[1,5-a]pyridine-7-carboxamide], the mortality at 300 ppm in the test on Spodoptera litura and in the test with Plutella xylostella was > 70% throughout.
With `COc1cc(C(=O)Nc2c(C)cc3ccnn3c2C(=O)NCC(F)(F)F)n(-c2ncccc2Cl)n1` [Compound 110, 6-(1-(3-chloropyridin-2-yl)-3-methoxy-1H-pyrazole-5-carboxamido)-5-methyl-N-(2,2,2-trifluoroethyl)pyrazolo[1,5-a]pyridine-7-carboxamide], the mortality at 300 ppm in the test on Spodoptera litura and in the test on Plutella xylostella was > 70% throughout.
